Assays:
Test in all cases: cell viability (% survival relative to DMSO control, bortezomib = 0%); higher = less cytotoxic
Details in all cases: 72 h
KG-1 = test system: KG-1
Outline: (§1)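 After 72 h at 37 °C with 5% CO2, cell viability in 384-well plates was measured by CellTiter-Glo luminescence. The plates held compounds pre-printed at 1, 10, 100, 1000 or 10000 nM in duplicate, and cells from 10 AML and 5 CML lines seeded at densities titrated to linear growth. Percent survival is the duplicate mean, normalised to vehicle as 100% and a 10 µM positive control as 0%.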

HL-60 = test system: HL-60
Outline: as §1

LAMA-84 = test system: LAMA-84
Outline: as §1

SHI-1 = test system: SHI-1
Outline: as §1

Row | SMILES | cell viability (KG-1; 1 nM) | cell viability (KG-1; 10 nM) | cell viability (KG-1; 100 nM) | cell viability (KG-1; 1000 nM) | cell viability (KG-1; 10000 nM) | cell viability (HL-60; 1 nM) | cell viability (HL-60; 10 nM) | cell viability (HL-60; 100 nM) | cell viability (HL-60; 1000 nM) | cell viability (HL-60; 10000 nM) | cell viability (LAMA-84; 1 nM) | cell viability (LAMA-84; 10 nM) | cell viability (LAMA-84; 100 nM) | cell viability (LAMA-84; 1000 nM) | cell viability (LAMA-84; 10000 nM) | cell viability (SHI-1; 1 nM) | cell viability (SHI-1; 10 nM) | cell viability (SHI-1; 100 nM) | cell viability (SHI-1; 1000 nM) | cell viability (SHI-1; 10000 nM)
1 | Clc1ccc2c(c1Cl)CNCC2 | 94.3% | 98.7% | 98.7% | 101% | 71.9% | 101% | 194% | 90.1% | 103% | 95.8% | 98.6% | 105% | 93.7% | 110% | 94.4% | 116% | 122% | 110% | 112% | 96.1%
2 | O=C(O)C(S)=Cc1c[nH]c2ccc(F)cc12 | 101% | 95.1% | 106% | 101% | 66.3% | 98.3% | 103% | 111% | 66.7% | 90.7% | 96.9% | 98.2% | 92.6% | 102% | 102% | 103% | 97.6% | 104% | 102% | 88.5%
3 | CC(C)Cc1sc(N)nc1-c1ccc(P(=O)(O)O)o1 | 110% | 90.8% | 102% | 98.8% | 108% | 56.2% | 90.1% | 72.8% | 105% | 67% | 111% | 97.4% | 102% | 94.4% | 80.3% | 106% | 98.3% | 106% | 98.7% | 104%
4 | Cl.OC[C@H]1NC[C@@H](O)[C@@H](O)[C@@H]1O [1-Deoxymannojirimycin hydrochloride] | 105% | 92.3% | 90.6% | 112% | 94.1% | 98.5% | 79.5% | 102% | 124% | 80.5% | 99.5% | 93.4% | 102% | 94% | 95.6% | 105% | 96.3% | 98.7% | 110% | 89.5%
5 | CN(C)c1nc(O)c2[nH]cnc2n1 [2-Dimethylamino-6-hydroxypurine] | 106% | 94.3% | 92.7% | 96.7% | 85.8% | 103% | 81.4% | 79.9% | 110% | 90.1% | 101% | 104% | 97.7% | 99.3% | 103% | 104% | 90.8% | 94.8% | 99.9% | 98.2%
6 | O=C(O)c1cc2sccc2[nH]1 [4H-thieno[3,2-b]pyrrole-5-carboxylic acid] | 105% | 106% | 92.7% | 91.8% | 95.2% | 117% | 104% | 90.6% | 69.1% | 95.3% | 101% | 99.3% | 110% | 95.4% | 105% | 108% | 96.4% | 90.4% | 97% | 107%
7 | [N-]=[N+]=CC(=O)CC[C@H](N)C(=O)O [6-Diazo-5-oxo-L-norleucine] | 110% | 95.2% | 101% | 117% | 98.9% | 64.7% | 83.2% | 135% | 97.5% | 106% | 98.5% | 98.8% | 101% | 97.7% | 100% | 110% | 101% | 103% | 104% | 99%
8 | Sc1ncnc2nc[nH]c12 [6-mercaptopurine] | 112% | 103% | 93.4% | 97.9% | 89.4% | 144% | 85.8% | 118% | 54.7% | 15.2% | 102% | 86.6% | 87.9% | 55.3% | 12.6% | 113% | 98.6% | 102% | 66.2% | 32.6%
9 | O=C(O)CC[C@H](NC(=O)c1ccc([N+](=O)[O-])cc1)C(=O)O [(S)-2-(4-Nitrobenzamido)pentanedioic acid] | 95.5% | 93.2% | 97.4% | 98.6% | 99.9% | 78% | 107% | 113% | 83.6% | 93.7% | 98.8% | 77.2% | 99.6% | 103% | 100% | 97.5% | 107% | 102% | 102% | 93.9%
10 | O=C1Nc2ccccc2/C1=C\NCCc1ccc(O)c(O)c1 [AC1NZZMF] | 112% | 106% | 104% | 95.7% | 78.7% | 76.8% | 102% | 82.5% | 96.8% | 86.8% | 107% | 108% | 102% | 101% | 107% | 88.8% | 108% | 89% | 103% | 90.8%
11 | Cc1ccc(S(=O)(=O)NC2c3ccccc3Oc3ccccc32)cc1 [AH-7614] | 100% | 95.9% | 102% | 95.4% | 104% | 103% | 112% | 87.8% | 94.5% | 86.2% | 93.7% | 98.8% | 101% | 95.5% | 105% | 105% | 110% | 105% | 97.1% | 85.5%
12 | C[C@]12CC[C@H](O)CC1=CC[C@@H]1[C@@H]2CC[C@]2(C)C(c3cccnc3)=CC[C@@H]12 [Abiraterone] | 115% | 101% | 94.3% | 101% | 91.8% | 142% | 97.7% | 136% | 80.3% | 124% | 105% | 106% | 94.1% | 102% | 108% | 119% | 108% | 106% | 108% | 112%
13 | O=C(COc1ccc(C(=O)c2ccccc2)cc1)NC1CCN(Cc2ccccc2)CC1 [AdipoRon] | 93.9% | 107% | 104% | 91.9% | 59.6% | 102% | 118% | 81.9% | 111% | 70% | 96.9% | 102% | 93.8% | 96.7% | 61.1% | 92.5% | 104% | 96% | 103% | 71.7%
14 | CCOC(=O)[C@H]1O[C@@H]1C(=O)N[C@@H](CC(C)C)C(=O)NCCC(C)C [Aloxistatin] | 99.8% | 104% | 103% | 92.9% | 86.5% | 103% | 120% | 108% | 114% | 74% | 93.7% | 101% | 101% | 101% | 98.6% | 102% | 92.6% | 104% | 102% | 92.5%
15 | N[C@](CCCCB(O)O)(CCN1CCCCC1)C(=O)O [Arginase inhibitor 1] | 97.2% | 84.2% | 96.6% | 100% | 92% | 131% | 104% | 73.9% | 106% | 117% | 99.9% | 102% | 96.1% | 102% | 88.9% | 92% | 105% | 90.1% | 110% | 92.8%
16 | Cc1noc2c1-c1ccccc1C(c1ccc(Cl)cc1)=N[C@H]2CC(N)=O [CPI-0610] | 100% | 93.9% | 62.6% | 21.5% | 12.7% | 110% | 102% | 69.4% | 33% | 16.1% | 107% | 92.3% | 98.4% | 67.2% | 33.6% | 105% | 94.5% | 88.8% | 44.4% | 21.8%
17 | Nc1ccn([C@@H]2O[C@H](CO)[C@@H](O)[C@@H]2O)c(=O)n1 [Cytarabine] | 108% | 108% | 63.5% | 21.8% | 11.3% | 100% | 95.1% | 82.3% | 28% | 0.475% | 93% | 80.3% | 38.5% | 12.9% | 5% | 102% | 92.6% | 58% | 14.6% | 2.46%
18 | CCOc1ccc(Cc2cc([C@@H]3O[C@H](CO)[C@@H](O)[C@H](O)[C@H]3O)ccc2Cl)cc1 [Dapagliflozin] | 95.5% | 102% | 83.6% | 101% | 91.8% | 101% | 86.8% | 81.3% | 94.4% | 104% | 98.1% | 111% | 89.7% | 97.7% | 90.5% | 99.4% | 114% | 85.2% | 91.1% | 107%
19 | CCN(CC)CCN(Cc1ccc(-c2ccc(C(F)(F)F)cc2)cc1)C(=O)Cn1c(SCc2ccc(F)cc2)nc(=O)c2c1CCC2 [Darapladib] | 104% | 108% | 93.6% | 87.8% | 0.0114% | 101% | 95.7% | 101% | 81.9% | -0.402% | 101% | 83.5% | 99.7% | 80.6% | -0.44% | 107% | 107% | 97.4% | 90.6% | -0.412%
20 | O=C(O)C(Cl)Cl [Dichloroacetate] | 108% | 94.6% | 91.5% | 93% | 103% | 96.5% | 115% | 104% | 109% | 120% | 101% | 100% | 98% | 101% | 99.3% | 99.7% | 104% | 96.8% | 101% | 103%
21 | O=C1Oc2ccccc2C(=O)C1CC1C(=O)Oc2ccccc2C1=O (stereo not given) [Dicumarol] | 106% | 105% | 88.6% | 101% | 95.9% | 98.3% | 102% | 101% | 104% | 112% | 97.3% | 107% | 95.5% | 103% | 105% | 95.8% | 105% | 104% | 106% | 105%
22 | CC12CCC(O)CC1CCC1C2CCC2(C)C(C3=CC(=O)OC3)CCC12O (stereo not given) [Digitoxigenin] | 128% | 113% | 87.5% | 6.15% | -1.05% | 101% | 105% | 103% | 1.05% | -1.85% | 109% | 105% | 84.6% | 6.05% | 0.855% | 108% | 108% | 103% | 4.47% | -0.733%
23 | C[C@H]1O[C@@H](O[C@H]2[C@@H](O)C[C@H](O[C@H]3[C@@H](O)C[C@H](O[C@H]4CC[C@@]5(C)[C@H](CC[C@@H]6[C@@H]5C[C@@H](O)[C@]5(C)[C@@H](C7=CC(=O)OC7)CC[C@]65O)C4)O[C@@H]3C)O[C@@H]2C)C[C@H](O)[C@@H]1O [Digoxin] | 92% | 108% | 27.9% | 0.685% | -0.0339% | 104% | 107% | -0.615% | -0.309% | -0.00704% | 92.3% | 115% | 20.6% | 2.17% | 2.06% | 115% | 94.9% | 17.8% | 0.649% | 0.63%
24 | O=c1c2ccccc2[se]n1-c1ccccc1 [Ebselen] | 98.2% | 89.7% | 105% | 80.3% | 75.4% | 107% | 94.8% | 102% | 95.6% | 77.6% | 93.3% | 97.1% | 95.5% | 92.1% | 101% | 107% | 96.5% | 106% | 92.6% | 88.6%
25 | Clc1ccc(COC(Cn2ccnc2)c2ccc(Cl)cc2Cl)cc1 (stereo not given) [Econazole] | 97.4% | 95.3% | 101% | 86% | 52.2% | 120% | 80.3% | 109% | 81.2% | 41.5% | 103% | 95.5% | 91.8% | 92% | 58.1% | 112% | 91% | 98.8% | 87.2% | 62.1%
26 | C#Cc1cnc(O)nc1O [Eniluracil] | 103% | 117% | 107% | 100% | 114% | 112% | 134% | 123% | 95.1% | 111% | 100% | 102% | 107% | 109% | 104% | 97.7% | 106% | 114% | 103% | 102%
